US7863279B2, “Triazolopyridine carboxamide derivatives and triazolopyrimidine carboxamide derivatives, preparation thereof and therapeutic use thereof” (sanofi-aventis, priority 2007, dated 2011)

Tests used:
[1] = biological target: T1, FAAH (Fatty Acid Amide Hydrolase) enzyme (Mus musculus, UniProt O08914); assay: Radioenzymatic assay of [3H] anandamide hydrolysis by FAAH; assay type: biochemical; conditions: mouse brain homogenate; 20 min preincubation; 10 μM anandamide, 20 min at ambient temperature; read-out: IC50 (concentration inhibiting 50% of the control enzyme activity of FAAH)
T1 construct: the source of FAAH enzyme is a homogenate of mouse brain from which the cerebellum and the medulla oblongata have been removed; from tissue; host or cells: mouse brain homogenate (cerebellum and medulla oblongata removed)
T1 sequence (O08914 1-579): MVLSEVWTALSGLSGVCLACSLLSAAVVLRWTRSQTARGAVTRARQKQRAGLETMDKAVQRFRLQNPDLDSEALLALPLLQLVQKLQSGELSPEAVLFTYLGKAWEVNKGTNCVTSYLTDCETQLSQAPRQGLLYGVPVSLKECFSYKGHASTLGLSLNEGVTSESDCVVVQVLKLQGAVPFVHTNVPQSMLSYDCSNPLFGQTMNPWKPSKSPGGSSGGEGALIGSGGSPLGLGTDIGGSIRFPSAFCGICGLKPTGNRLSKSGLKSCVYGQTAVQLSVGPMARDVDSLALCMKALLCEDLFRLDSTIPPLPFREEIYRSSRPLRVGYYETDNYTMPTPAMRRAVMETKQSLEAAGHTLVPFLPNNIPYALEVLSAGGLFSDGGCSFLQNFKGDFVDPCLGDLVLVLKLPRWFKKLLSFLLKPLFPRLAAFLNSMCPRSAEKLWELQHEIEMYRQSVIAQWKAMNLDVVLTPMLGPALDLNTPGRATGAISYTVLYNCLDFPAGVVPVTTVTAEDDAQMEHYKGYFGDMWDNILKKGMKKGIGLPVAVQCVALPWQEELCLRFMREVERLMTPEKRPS
Protocol: Tests comprised measuring the activity, in vitro, of the compounds of the invention on the FAAH enzyme.
The inhibitory activity was measured in a radioenzymatic assay based on measuring the product of hydrolysis (ethanolamine [1-3H]) of anandamide by FAAH (Life Science (1995), 56, 1999-2005 and Journal of Pharmacology and Experimented Therapeutics (1997), 283, 729-734). The products of hydrolysis of [^3H] anandamide, labeled on ethanolamine, are arachidonic acid and [^3H]ethanolamine, and the source of FAAH enzyme is a homogenate of mouse brain from which the cerebellum and the medulla oblongata have been removed. The mouse brains are removed, and stored at −80° C. until they are used, or homogenized immediately for twice 5 seconds using a Precellys apparatus at 5000 rpm (Bertin) in a 10 mM Tris-HCl, 150 mM NaCl, 1 mM EDTA buffer (pH 8) at 4° C. The concentration of the homogenates is then adjusted to 20 μg/μl.
(§1) The dilution series of the compounds is prepared from stock solutions at 20 mM in 100% DMSO. […]
(§2) Assaying of the FAAH activity is carried out in a 96-well microplate in a final reaction volume of 70 μl. […] After stirring for 10 minutes, the microplate is centrifuged for 15 minutes at 4000 g and a 30 μl aliquot of the aqueous phase containing the [^3H]ethanolamine produced is removed and then counted for 5 minutes by liquid scintillation (Wallac 1450 Microbeta).

[2] = biological target: T2, MGL (monoacyl glycerol lipase) enzyme (Mus musculus, UniProt O35678); assay: Radioenzymatic assay of [3H] 2-oleoyl glycerol hydrolysis by MGL; assay type: biochemical; conditions: mouse brain homogenate; 20 min preincubation; 50 μM 2-OG, 20 min at ambient temperature; read-out: IC50 (concentration inhibiting 50% of the control enzyme activity of MGL)
T2 construct: the source of MGL enzyme is a homogenate of mouse brain from which the cerebellum and the medulla oblongata have been removed; from tissue; host or cells: mouse brain homogenate (cerebellum and medulla oblongata removed)
T2 sequence (O35678 1-303): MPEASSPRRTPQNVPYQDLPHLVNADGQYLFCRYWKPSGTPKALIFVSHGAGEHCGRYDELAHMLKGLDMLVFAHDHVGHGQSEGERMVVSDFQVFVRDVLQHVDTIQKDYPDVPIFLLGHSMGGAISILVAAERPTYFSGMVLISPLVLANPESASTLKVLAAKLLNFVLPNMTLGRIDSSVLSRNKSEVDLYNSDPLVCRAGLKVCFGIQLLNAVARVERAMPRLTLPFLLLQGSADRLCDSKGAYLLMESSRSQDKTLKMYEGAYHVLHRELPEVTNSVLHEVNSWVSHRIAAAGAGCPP
Protocol: Tests comprised measuring the activity, in vitro, of the compounds of the invention on the MGL enzyme.
The inhibitory activity was measured in a radioenzymatic assay based on measuring the product of hydrolysis of 2-oleoyl glycerol ([^3H] 2-OG) by MGL. The products of hydrolysis of [^3H] 2-OG, labeled on the glycerol, are oleic acid and [^3H] glycerol, and the source of MGL enzyme is a homogenate of mouse brain from which the cerebellum and the medulla oblongata have been removed. The mouse brains are removed, and stored at −80° C. until they are used, or homogenized immediately for twice 5 seconds using a Precellys apparatus at 5000 rpm (Bertin) in a 10 mM Tris-HCl, 150 mM NaCl, 1 mM EDTA buffer (pH 8) at 4° C. The concentration of the homogenates is then adjusted to 7.5 μg/μl.
as §1
as §2, with “MGL” for “FAAH”, “100” for “70”, “[^3H] glycerol” for “[^3H]ethanolamine”, “Microbeta). […]” for “Microbeta).”

O=C(N1CCN(c2cccc(C(F)(F)F)c2)CC1)n1nnc2ccc(-c3ccsc3)nc21 [compound 5, (5-thiophen-3-yl[1,2,3]triazolo[4,5-b]pyridin-3-yl)[4-(3-trifluoromethylphenyl)piperazin-1-yl]methanone]
melting point: 93 to 95 °C

O=C(N1CCN(c2cccc(C(F)(F)F)c2)CC1)n1nnc2ccc(-c3ccccc3Cl)nc21 [compound 1, [5-(2-chlorophenyl)[1,2,3]triazolo[4,5-b]pyridin-3-yl][4-(3-trifluoromethylphenyl)piperazin-1-yl]methanone]
melting point: 69 to 71 °C

O=C(N1CCN(c2cccc(C(F)(F)F)c2)CC1)n1nnc2ccc(-c3ccc4ccccc4c3)nc21 [compound 6, (5-naphthalen-2-yl[1,2,3]triazolo[4,5-b]pyridin-3-yl)[4-(3-trifluoromethylphenyl)piperazin-1-yl]methanone]
melting point: 90 to 92 °C

O=C(N1CCN(c2cccc(C(F)(F)F)c2)CC1)n1nnc2ccc(-c3ccc(Cl)cc3)nc21 [Compound No. 3, [5-(4-chlorophenyl)[1,2,3]triazolo[4,5-b]pyridin-3-yl][4-(3-trifluoromethylphenyl)piperazin-1-yl]methanone]
IC50 [1]: 2 nM | IC50 [2]: 2 nM | melting point: 139 to 141 °C

O=C(N1CCN(c2cccc(C(F)(F)F)c2)CC1)n1nnc2ccc(-c3cccc(Cl)c3)nc21 [compound 2, [5-(3-chlorophenyl)[1,2,3]triazolo[4,5-b]pyridin-3-yl][4-(3-trifluoromethylphenyl)piperazin-1-yl]methanone]
melting point: 102 to 104 °C

O=C(N1CCN(c2cccc(C(F)(F)F)c2)CC1)n1nnc2ccc(-c3ccoc3)nc21 [compound 4, (5-furan-3-yl[1,2,3]triazolo[4,5-b]pyridin-3-yl)[4-(3-trifluoromethylphenyl)piperazin-1-yl]methanone]
melting point: 68 to 70 °C
